As usually defined, the EC50 is the concentration that produces a half-maximal response. Read a high EC50 as lower potency in that assay.

The test concerns the target T1, Jak1 (Homo sapiens, UniProt P23458).
T1 construct: endogenous in cells; host or cells: TF1 cells
The test is described as follows: Jak1 (PSTAT3 TF1) alpha screen assay: inhibition of IL-6 induced phosphorylation of STAT3 in TF1 cells. It is filed as cell-based. The settings on record: for EC50: IL-6 induced pSTAT3, TF1 cells; for Tyk2 selectivity over Jak1: calculated from tabulated EC50 data (Jak1 / Tyk2). The procedure, abridged: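 IL-6-starved TF1 cells were preincubated 30 min at 37 °C with compound (top final 25 μM, 8-point 1:5 series), then stimulated with IL-6 (100 ng/mL final) for 30 min at 37 °C. Lysates were read for pSTAT3 (Tyr705) by AlphaScreen SureFire. EC50 from percent-activity dose-response curves.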

T1 sequence (P23458 whole entry): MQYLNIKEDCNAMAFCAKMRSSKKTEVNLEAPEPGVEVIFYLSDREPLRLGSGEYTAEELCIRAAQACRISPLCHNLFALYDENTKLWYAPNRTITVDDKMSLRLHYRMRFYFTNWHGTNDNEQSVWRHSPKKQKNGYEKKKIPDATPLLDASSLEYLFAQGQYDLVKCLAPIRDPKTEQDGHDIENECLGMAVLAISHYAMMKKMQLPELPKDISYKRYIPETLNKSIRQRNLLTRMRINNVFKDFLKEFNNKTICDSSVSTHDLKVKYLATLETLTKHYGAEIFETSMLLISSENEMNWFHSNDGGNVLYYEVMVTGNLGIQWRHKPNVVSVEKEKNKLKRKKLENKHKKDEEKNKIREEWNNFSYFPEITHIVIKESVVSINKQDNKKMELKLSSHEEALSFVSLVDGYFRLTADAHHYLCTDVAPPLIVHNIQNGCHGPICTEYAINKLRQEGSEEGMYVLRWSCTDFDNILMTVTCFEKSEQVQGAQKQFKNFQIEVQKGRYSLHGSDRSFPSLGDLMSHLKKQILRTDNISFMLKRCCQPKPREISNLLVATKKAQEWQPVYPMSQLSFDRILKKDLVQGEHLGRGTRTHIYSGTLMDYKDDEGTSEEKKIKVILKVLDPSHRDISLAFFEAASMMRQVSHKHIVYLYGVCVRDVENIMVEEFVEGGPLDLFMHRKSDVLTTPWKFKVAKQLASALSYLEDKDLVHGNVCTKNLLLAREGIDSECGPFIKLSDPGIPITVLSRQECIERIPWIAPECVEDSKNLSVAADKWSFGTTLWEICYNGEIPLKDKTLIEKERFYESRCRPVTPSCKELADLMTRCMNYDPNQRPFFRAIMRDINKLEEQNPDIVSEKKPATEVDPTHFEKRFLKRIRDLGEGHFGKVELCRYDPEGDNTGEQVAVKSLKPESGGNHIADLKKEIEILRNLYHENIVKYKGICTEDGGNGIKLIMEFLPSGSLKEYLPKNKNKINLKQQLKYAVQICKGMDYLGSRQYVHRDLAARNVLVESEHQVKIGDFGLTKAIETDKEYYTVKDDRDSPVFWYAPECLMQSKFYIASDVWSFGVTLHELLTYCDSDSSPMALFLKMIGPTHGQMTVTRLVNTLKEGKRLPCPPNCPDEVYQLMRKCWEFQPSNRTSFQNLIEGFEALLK

On to `COCc1cc(-c2cn(C)c3cnc(NC(C)=O)cc23)nc([C@]2([C@H](C)O)CCOC2)c1` [Example 22.3, N-(3-(6-((R)-3-((S)-1-hydroxyethyl)tetrahydrofuran-3-yl)-4-(methoxymethyl)pyridin-2-yl)-1-methyl-1H-pyrrolo[2,3-c]pyridin-5-yl)acetamide], for which the concentration for a half-maximal effect (EC50) stood at 12.9 µM and the “Tyk2 selectivity over Jak1” value is reported as 88-fold.

With `COCc1cc(-c2cn(C)c3cnc(NC(C)=O)cc23)nc([C@]2([C@@H](C)O)CCOC2)c1` [Example 22.4, N-(3-(6-((R)-3-((R)-1-hydroxyethyl)tetrahydrofuran-3-yl)-4-(methoxymethyl)pyridin-2-yl)-1-methyl-1H-pyrrolo[2,3-c]pyridin-5-yl)acetamide], the EC50 stood at 27.2 µM and the “Tyk2 selectivity over Jak1” value is 243-fold.

Source of the values: patent US10508113B2, “Inhibitors of tyrosine kinase 2 mediated signaling” (AbbVie Inc., priority 2018, dated 2019).
